What was measured:
MCA and BA from SAH rats = experiment: Myograph contractile response to ET-1 in cerebral arteries of treated SAH rats; set-up: species or system rat; settings: in vivo treated SAH rats compared to SAH rats, no significant difference to sham
Procedure: (§1) After 48 hours of observation sham, SAH treated with SB386023-b or treated with the PKC inhibitor RO-31-7549 or U0126 or SAH+vehicle operated rats (see above SAH model) were anaesthetized with CO2 and decapitated. The brains were quickly removed and chilled in ice-cold bicarbonate buffer solution (see composition below). Under a dissection microscope, the middle cerebral artery (MCA), the basilar artery (BA) and circle of Willis were carefully dissected free from the brain and cleared of connective tissue. The MCA and BA were immediately mounted in myographs for in vitro pharmacology or snap frozen at −80° C. and examined by real-time PCR.
In vitro Pharmacology Myograph Experiments For contractile experiments a sensitive myograph was used for recording the isometric tension in isolated cerebral arteries (Hogestatt et al., (1983, Mulvany and Helpern, 1977). The vessels were cut into 1 mm long cylindrical segments and mounted on two 40 μm in diameter stainless steel wires in a Myograph (Danish Myo Technology A/S, Denmark). One wire was connected to a force displacement transducer attached to an analog-digital converter unit (ADInstruments, Oxford, UK). The other wire was connected to a micrometer screw, allowing fine adjustments of vascular tone by varying the distance between the wires. Measurements were recorded on a computer by use of a PowerLab unit (ADInstruments). […]

[1] = tested on: MCA and BA from rats with induced SAH; experiment: Myograph contractile response to 5-CT in cerebral arteries of treated SAH rats; set-up: species or system rat; settings: treatment in vivo, compared to SAH rats; for 5-CT contraction, first 5-HT1B and second 5-HT2A phases: BA; for 5-CT contraction Emax(1) / 5-CT contraction Emax(2), pEC50(1) and pEC50(2): MCA
Procedure: as §1
In vitro Pharmacology Myograph Experiments For contractile experiments a sensitive myograph was used for recording the isometric tension in isolated cerebral arteries (Hogestatt et al., (1983, Mulvany and Helpern, 1977). The vessels were cut into 1 mm long cylindrical segments and mounted on two 40 μm in diameter stainless steel wires in a Myograph (Danish Myo Technology A/S, Denmark). One wire was connected to a force displacement transducer attached to an analog-digital converter unit (ADInstruments, Oxford, UK). The other wire was connected to a micrometer screw, allowing fine adjustments of vascular tone by varying the distance between the wires. Measurements were recorded on a computer by use of a PowerLab unit (ADInstruments). The segments were immersed in a temperature controlled buffer solution (37° C.) of the following composition (mM) NaCl 119, NaHCO3 15, KCl 4.6, MgCl2 1.2, NaH2PO4 1.2, CaCl2 1.5 and glucose 5.5. The buffer was continuously aerated with oxygen enriched with 5% CO2 resulting in a pH of 7.4. The vessels were stretched to an initial resting tone of 2 mN and then allowed to stabilize at this tone for 1 hour. The contractile capacity was determined by exposing the vessels to an isotonic solution containing 63.5 mM of K+, obtained by partial change of NaCl for KCl in the above buffer. The contraction induced by K+ was used as reference for the contractile capacity. Only vessels responding by contraction of at least 2.0 mN to potassium for BA and 0.8 mN to potassium for MCA were included in the study. The presence of the endothelium was checked by precontracting the vessel using 5-HT (10^−6.5M) (Sigma, St Louis, USA) and subsequently exposing the segments to carbachol (10^−5 M) (Sigma, St Louis, USA). A relaxant response of the precontracted tension was considered indicative of a functional endothelium (Hansen-Schwartz et al., 2003a).
Concentration-response curves were obtained by cumulative application of 5-CT (Sigma, St. Louis, USA) in the concentration range 10^−12 to 10^−5 M, ET-1 (AnaSpec, San Jose, USA) in the concentration range 10^−14 to 10^−7 M and Ang II (Sigma, St. Louis, USA) in the concentration range 10^−12 to 10^−6 M. Before application of Ang II the arteries were pretreated with the AT2 receptor antagonist PD123319 (10^−5.5 M) for 30 minutes (a kind gift from Dr P. Morsing, Astra-Zeneca, Molndal, Sweden).
Data are expressed as mean±standard error of the mean (s.e.m.), and n refers to the number of rats. Statistical analyses were performed with Kruskal-Wallis non-parametric test with Dunn's post-hoc test, where P<0.05 was considered significant. In vitro Pharmacology Contractile responses in each segment are expressed as percentage of the 63.5 mM K+ induced contraction. Emax value represents the maximum contractile response elicited by an agonist and the pEC50 the negative logarithm of the drug concentration that elicited half the maximum response. For biphasic responses, Emax(1) and pEC50(1) describes the high affinity phase and Emax(2) and pEC50(2) describes the low affinity phase.

SMILES	ET-1 induced contractile response (MCA and BA from SAH rats)	5-CT contraction, first 5-HT1B and second 5-HT2A phases [1]	5-CT contraction Emax(1) [1]	5-CT contraction Emax(2), pEC50(1) and pEC50(2) [1]
Cn1cc(C2=C(c3cn(CCCN)c4ccccc34)C(=O)NC2=O)c2ccccc21 [RO-31-7549]	significantly attenuated	downregulated	significantly reduced	tendency to decrease
Oc1cc(-c2nc(-c3ccccc3)[nH]c2-c2ccncc2)ccc1Cl [SB386023-b]	significantly attenuated	downregulated	significantly reduced	tended to decrease
N#CC(=C(/N)Sc1ccccc1N)/C(C#N)=C(\N)Sc1ccccc1N [U0126]			significantly reduced	tended to decrease

From patent US8273771B2, “Ischemic disorder or disease inhibitors” (Pronas Pharma AB, priority 2007, dated 2012)
